Key:
bna7Δ (YKB4649) [1] = assay: automated growth curve analysis in YPD liquid medium; assay type: cell-based, S. cerevisiae; conditions: 10 mM ferulic acid, 30° C., 72 hr
Procedure: The agar-based chemogenomic screen was confirmed by measuring the growth rate of the identified mutants in liquid YPD medium supplemented with the phenolic compounds. Briefly, overnight cultures of the mutant strains were inoculated into fresh YPD medium and strains were incubated at 30° C. until they reached the mid log phase ([…] 0.5-0.6), prior to being diluted to a final OD600 of 0.1 in a BioScreen CTM Honeycomb microplate. The growth assays were performed for each mutant in triplicate in YPD alone (control) or YPD medium supplemented with ferulic acid, 4-hydroxybenzoic acid or coniferyl aldehyde. Using a BioScreen CTM plate reader, the cultures were incubated at 30° C. for 72 hours and OD600 readings were taken every 15 min to plot growth curves. Data from the BioScreen CTM were analyzed with the PRECOG software (Fernandez-Ricaud et al., […], Nucleic acids research. 41, W591-6) to obtain the doubling time of all the strains. A PRECOG score for each of the strains tested was calculated as the ratio of the doubling time in the presence of the phenolic to the doubling time in the absence of these phenolic compounds. Using a cut-off PRECOG score of >2 and <0.4 strains were identified that were sensitive or tolerant, respectively, to the phenolic compounds. […]

wild-type yeast (BY4741) = assay: ROS measurement by H2DCFDA fluorescence microscopy; assay type: cell-based, S. cerevisiae; conditions: 2 mM CA, 1 hour at 30° C.; for subcellular distribution of induced ROS: 10 mM FA or 50 mM 4-HBA
Procedure: Measurement of ROS was performed as previously described (Kennedy et al., 2016, Sci Rep. 6, 19332). Briefly cells were incubated with 10 μM 2′,7′-dichlorodihydrofluorescein diacetate (H2DCFDA; Invitrogen cat. #D399) for 15 min in the dark. […] An aliquot of 5 μL was spotted onto glass slides and covered with a cover slip prior to imaging. All images were acquired using a Leica DMI 6000 florescent microscope (Leica Microsystems GmbH, Wetzler Germany), equipped with a Sutter DG4 light source (Sutter Instruments, California, USA), Ludl emission filter wheel with Chroma band pass emission filters (Ludl Electronic Products Ltd., NY, USA) and Hamamatsu Orca AG camera (Hamamatsu Photonics, Herrsching am Ammersee, Germany). Images were acquired at 0.2 μm steps across 6 μm using a 63× oil-immersion objective with a 1.4 numerical aperture. Analysis of H2DCFDA fluorescence was performed using Velocity Software V4 (Perkin Elmer). Image J software was used to quantify the H2DCFDA fluorescence signal in cells as described by Schneider et al (Schneider et al., 2012, Nature Methods, 9, 671-675) with a slight modification. Briefly, background fluorescence was subtracted from the images and the total fluorescence of all the cells in the image was measured and divided by the number of cells in the image. The images contained a minimum of 100 cells. The ratio of fluorescence per cell of treated cultures was divided by that of untreated cultures to eliminate background endogenous ROS production.

[2] = tested on: mutants aro8Δ, bna2Δ, bna6Δ, bna5Δ, bna4Δ and bna1Δ; assay: serial dilution spot assay on YPD agar plates; assay type: cell-based, S. cerevisiae; conditions: 10 mM ferulic acid, 48 hr at 30° C.
Procedure: (§1) In addition, deletion mutants were generated for genes involved in the tryptophan catabolic pathway and their growth was assayed on solid media containing 10 mM ferulic acid. In particular, wild type yeast (BY4741) along with deletion mutants aro8Δ (YKB4799), bna7Δ (YKB4649), bna2Δ (YKB4798), bna6Δ (YKB4844), bna5Δ (YKB4845), bna4Δ (YKB4846) and bna1Δ (YKB4729) were grown to mid log phase ([…] 0.5-0.6) in YPD medium prior to being diluted to an OD600 of 0.1. Four 10-fold serial dilutions were spotted onto YPD agar plates either containing 10 mM ferulic acid or no ferulic acid. Plates were incubated for 48 hr at 30° C. Images of the plates were taken with the ChemiDoc XRS Molecular Imaging system (Biorad) and images are representative of three biological replicates.

bna7Δ (YKB4649) [3] = assay: serial dilution spot assay on YPD agar plates; assay type: cell-based, S. cerevisiae; conditions: 10 mM FA, 35 mM 4-HBA or 1 mM CA, 48 hr at 30° C.
Procedure: as §1
Experiments were also conducted to determine if deletion of BNA7 could provide protection to 4-hydroxybenzoic acid or coniferyl aldehyde (CA). Wild type (BY4741) and bna7A (YKB4649) strains were grown to mid log phase in YPD medium prior to being diluted into fresh medium to an OD600 of 0.1. Four 10-fold serial dilutions were spotted onto YPD agar plates containing either no compound (Untreated), 10 mM ferulic acid (FA), 35 mM 4-hydroxybenzoic acid (4-HBA) or 1 mM coniferyl aldehyde (CA). Plates were incubated for 48 hr at 30° C. and images are representative of three biological replicates.

Zwf1-GFP = Zwf1-GFP fluorescence microscopy; assay type: cell-based, S. cerevisiae; conditions: 2 mM CA for 120 min at 30° C. (ρ=9.69E-5); ferulic acid 10 mM
Procedure: For the microscopy studies, wild type cells expressing endogenously tagged Zwf1-GFP (YKB4825) were grown to mid log in YPD, prior to being washed and resuspended in YPD medium (Untreated) or YPD medium containing 2 mM coniferyl aldehyde (CA) for 120 min at 30° C. Images (FIG. 8A) are representative of three independent experiments where a minimum of 100 cells each were imaged. Scale bar represents 10 μm.

bna7Δ cells = assay: ROS measurement by H2DCFDA fluorescence microscopy; assay type: cell-based, S. cerevisiae; conditions: 10 mM ferulic acid for 2 hr; not statistically significant (ρ=0.756)
Procedure: For all microscopy experiments overnight cultures of wild-type yeast grown at 30° C. were re-suspended at an OD600 of 0.1 in YPD medium and allowed to reach mid-log phase prior to imaging. Measurement of ROS was performed as previously described (Kennedy et al., 2016, Sci Rep. 6, 19332). Briefly cells were incubated with 10 μM 2′,7′-dichlorodihydrofluorescein diacetate (H2DCFDA; Invitrogen cat. #D399) for 15 min in the dark. Cells were washed in sterile PBS to remove traces of the dye after which they were re-suspended in YPD medium alone, or YPD supplemented with either 2 mM coniferyl aldehyde, […]
Analysis of H2DCFDA fluorescence was performed using Velocity Software V4 (Perkin Elmer). Image J software was used to quantify the H2DCFDA fluorescence signal in cells as described by Schneider et al (Schneider et al., 2012, Nature Methods, 9, 671-675) with a slight modification. Briefly, background fluorescence was subtracted from the images and the total fluorescence of all the cells in the image was measured and divided by the number of cells in the image. […] The ratio of fluorescence per cell of treated cultures was divided by that of untreated cultures to eliminate background endogenous ROS production. […]

[4] = tested on: Saccharomyces cerevisiae ethanol red; conditions: commercial Saccharomyces cerevisiae ethanol red; Adeboye et al., 2014; cited from earlier work

SMILES	growth (OD600) of bna7Δ relative to wild-type (bna7Δ (YKB4649) [1])	subcellular distribution of induced ROS (wild-type yeast (BY4741))	effect of gene deletion on ferulic acid tolerance [2]	resistance of bna7Δ / protection by deletion of BNA7 (bna7Δ (YKB4649) [3])	Zwf1-GFP fluorescence signal/cell (Zwf1-GFP)	ROS signal in bna7Δ compared to wild-type (bna7Δ cells)	concentration at which the compound kills the yeast [4]	ROS formation (H2DCFDA fluorescence) (wild-type yeast (BY4741); 10 mM FA, 50 mM 4-HBA or hydrogen peroxide)
COc1cc(C=CC(=O)O)ccc1O [ferulic acid, 4-hydroxy-3-methoxycinnamic acid]	increased growth relative to the wild-type strain	distributed throughout the cell	no effect	resistant	no increase	slight reduction of ROS	5 mM	–
O=C(O)c1ccc(O)cc1 [4-hydroxybenzoic acid]	–	distributed throughout the cell	–	does not provide protection	no increase	–	11 mM	–
OO [hydrogen peroxide]	–	–	–	–	–	–	–	induced the formation of green fluorescence signal throughout the cell

— US11555210B2, “Microbe having increased tolerance to phenolic fermentation inhibitors” (University of Ottawa, priority 2018, dated 2023)
